The experiment relates to MV-4-11 cells. Nature of the experiment: Gene expression microarray analysis (Affymetrix PrimeView) and GSEA. The arrangement: RFU PODN (11730768_x_at) / Fold change /veh PODN (11730768_x_at) / RFU LINC00158 (11744669_a_at) / Fold change /veh LINC00158 (11744669_a_at) / RFU DUSP10 (11751237_a_at) / Fold change /veh DUSP10 (11751237_a_at) / RFU ID3 (11757404_x_at) / Fold change /veh ID3 (11757404_x_at) / RFU PLEKHG5 (11737974_s_at) / Fold change /veh PLEKHG5 (11737974_s_at) / RFU LRRC4B (11730491_at) / Fold change /veh LRRC4B (11730491_at) / RFU GIMAP4 (11747438_a_at) / Fold change /veh GIMAP4 (11747438_a_at) / RFU KRT8 (11758183_x_at) / Fold change /veh KRT8 (11758183_x_at) / RFU CNN1 (11734310_a_at) / Fold change /veh CNN1 (11734310_a_at) / RFU VPS37D (11726825_at) / Fold change /veh VPS37D (11726825_at) / RFU C10orf10 (11716522_x_at) / Fold change /veh C10orf10 (11716522_x_at) / RFU KIR2DL2 /// KIR2DL4 /// KIR2DL5A /// KIR2DL5B /// KIR2DS1 /// KIR2DS2 /// KIR2DS3 /// KIR2DS4 /// KIR3DL3 /// KIR3DL3 /// KIR3DS1 (11738374_at) / Fold change /veh KIR2DL2 /// KIR2DL4 /// KIR2DL5A /// KIR2DL5B /// KIR2DS1 /// KIR2DS2 /// KIR2DS3 /// KIR2DS4 /// KIR3DL3 /// KIR3DL3 /// KIR3DS1 (11738374_at) / RFU C1QL1 (11718748_at) / Fold change /veh C1QL1 (11718748_at) / RFU TMPRSS4 (11747572_a_at) / Fold change /veh TMPRSS4 (11747572_a_at) / RFU HAMP (11756126_x_at) / Fold change /veh HAMP (11756126_x_at) / RFU RNFT2 (11725882_a_at) / Fold change /veh RNFT2 (11725882_a_at) / RFU NR4A2 (11747474_a_at) / Fold change /veh NR4A2 (11747474_a_at) / RFU ABCC12 (11746883_a_at) / Fold change /veh ABCC12 (11746883_a_at) / RFU TMEM136 (11760407_x_at) / Fold change /veh TMEM136 (11760407_x_at) / RFU CLDN22 /// WWC2 (11732394_at) / Fold change /veh CLDN22 /// WWC2 (11732394_at) / RFU HLA-DPB1 (11760878_x_at) / Fold change /veh HLA-DPB1 (11760878_x_at) / RFU SPINT1 (11716480_a_at) / Fold change /veh SPINT1 (11716480_a_at) / RFU GAP43 (11754022_s_at) / Fold change /veh GAP43 (11754022_s_at) / RFU A4GNT (11735810_at) / Fold change /veh A4GNT (11735810_at) / RFU PRB3 (11715151_x_at) / Fold change /veh PRB3 (11715151_x_at) / RFU TUBB4B (11761932_at) / Fold change /veh TUBB4B (11761932_at) / RFU CAPN14 (11732068_a_at) / Fold change /veh CAPN14 (11732068_a_at) / RFU TMCC2 (11721928_a_at) / Fold change /veh TMCC2 (11721928_a_at) / RFU IRGQ (11745062_a_at) / Fold change /veh IRGQ (11745062_a_at) / RFU FAM174B (11720279_a_at) / Fold change /veh FAM174B (11720279_a_at) / RFU TMPRSS4 (11748680_a_at) / Fold change /veh TMPRSS4 (11748680_a_at) / RFU FAM212B (11763350_a_at) / Fold change /veh FAM212B (11763350_a_at) / RFU PLEKHG5 (11743358_a_at) / Fold change /veh PLEKHG5 (11743358_a_at) / RFU ZSCAN30 (11745921_a_at) / Fold change /veh ZSCAN30 (11745921_a_at) / RFU CMKLR1 (11741424_a_at) / Fold change /veh CMKLR1 (11741424_a_at) / RFU LOC101060620 /// MAPK8IP1 (11723275_at) / Fold change /veh LOC101060620 /// MAPK8IP1 (11723275_at) / RFU SPTSSB (11747773_x_at) / Fold change /veh SPTSSB (11747773_x_at) / RFU PRSS12 (11739890_at) / Fold change /veh PRSS12 (11739890_at) / RFU BIN1 (11741810_x_at) / Fold change /veh BIN1 (11741810_x_at) / RFU WNT11 (11732464_a_at) / Fold change /veh WNT11 (11732464_a_at) / RFU C10orf10 (11716521_a_at) / Fold change /veh C10orf10 (11716521_a_at) / RFU C5orf56 (11738089_at) / Fold change /veh C5orf56 (11738089_at) / RFU CYB561 (11721691_x_at) / Fold change /veh CYB561 (11721691_x_at) / RFU ANKRD19P (11752326_a_at) / Fold change /veh ANKRD19P (11752326_a_at) / RFU OR2T12 /// OR2T33 /// OR2T8 (11738714_s_at) / Fold change /veh OR2T12 /// OR2T33 /// OR2T8 (11738714_s_at) / RFU VCAN (11748164_a_at) / Fold change /veh VCAN (11748164_a_at) / RFU JSRP1 (11732532_at) / Fold change /veh JSRP1 (11732532_at) / RFU KRTAP10-11 (11738290_x_at) / Fold change /veh KRTAP10-11 (11738290_x_at) / RFU MYO3A (11730013_a_at) / Fold change /veh MYO3A (11730013_a_at) / RFU EBF3 (11725865_a_at) / Fold change /veh EBF3 (11725865_a_at) / RFU CAMK2N1 (11719241_x_at) / Fold change /veh CAMK2N1 (11719241_x_at) / RFU C5orf56 (11738088_a_at) / Fold change /veh C5orf56 (11738088_a_at) / RFU OLFML3 (11715873_a_at) / Fold change /veh OLFML3 (11715873_a_at) / RFU LOC100653217 /// NTM (11731650_a_at) / Fold change /veh LOC100653217 /// NTM (11731650_a_at) / RFU MAPK11 (11762145_a_at) / Fold change /veh MAPK11 (11762145_a_at) / RFU FIZ1 (11724087_x_at) / Fold change /veh FIZ1 (11724087_x_at) / RFU OASL (11726364_x_at) / Fold change /veh OASL (11726364_x_at) / RFU SOX15 (11748057_x_at) / Fold change /veh SOX15 (11748057_x_at) / RFU CD79A (11719716_a_at) / Fold change /veh CD79A (11719716_a_at) / RFU HIST1H1D (11736915_at) / Fold change /veh HIST1H1D (11736915_at) / RFU CASKIN2 (11723855_a_at) / Fold change /veh CASKIN2 (11723855_a_at) / RFU LOC730098 (11760151_x_at) / Fold change /veh LOC730098 (11760151_x_at) / RFU OR4N2 (11742367_at) / Fold change /veh OR4N2 (11742367_at) / RFU PRRT2 (11749266_a_at) / Fold change /veh PRRT2 (11749266_a_at) / RFU SNX32 (11753110_a_at) / Fold change /veh SNX32 (11753110_a_at) / RFU CDHR5 (11726645_a_at) / Fold change /veh CDHR5 (11726645_a_at) / RFU RCAN1 (11760418_a_at) / Fold change /veh RCAN1 (11760418_a_at) / RFU FAM167A (11723789_a_at) / Fold change /veh FAM167A (11723789_a_at) / RFU FAM26E (11764081_at) / Fold change /veh FAM26E (11764081_at) / RFU ISYNA1 (11749810_s_at) / Fold change /veh ISYNA1 (11749810_s_at) / RFU ACY1 (11761880_at) / Fold change /veh ACY1 (11761880_at) / RFU 11764098_at / Fold change /veh 11764098_at / RFU SAMD14 (11745864_x_at) / Fold change /veh SAMD14 (11745864_x_at) / RFU NPB (11741838_a_at) / Fold change /veh NPB (11741838_a_at) / RFU TMPRSS6 (11731388_a_at) / Fold change /veh TMPRSS6 (11731388_a_at) / RFU KRTAP10-2 (11738614_at) / Fold change /veh KRTAP10-2 (11738614_at) / RFU ARHGAP8 /// PRR5-ARHGAP8 (11727945_x_at) / Fold change /veh ARHGAP8 /// PRR5-ARHGAP8 (11727945_x_at) / RFU KRTAP5-7 /// NADSYN1 (11734609_at) / Fold change /veh KRTAP5-7 /// NADSYN1 (11734609_at) / RFU RASL12 (11751679_a_at) / Fold change /veh RASL12 (11751679_a_at) / RFU CDKN2B (11736163_a_at) / Fold change /veh CDKN2B (11736163_a_at) / RFU PRF1 (11729649_at) / Fold change /veh PRF1 (11729649_at) / RFU, ZNF638 /// ZNF638-IT1 / Fold change vs veh, ZNF638 /// ZNF638-IT1 / RFU, PANK3 / Fold change vs veh, PANK3 / RFU, SH3YL1 / Fold change vs veh, SH3YL1 / RFU, ZEB2 / Fold change vs veh, ZEB2 / RFU, NRIP1 / Fold change vs veh, NRIP1 / RFU, PTTG1IP / Fold change vs veh, PTTG1IP / RFU, CAPN2 / Fold change vs veh, CAPN2 / RFU, MED14 / Fold change vs veh, MED14 / RFU, SNORA58 / Fold change vs veh, SNORA58 / RFU, C1orf63 / Fold change vs veh, C1orf63 / RFU, LRRFIP1 / Fold change vs veh, LRRFIP1 / RFU, NDUFAF7 / Fold change vs veh, NDUFAF7 / RFU, SLC12A2 / Fold change vs veh, SLC12A2 / RFU, IBTK / Fold change vs veh, IBTK / RFU, ESF1 / Fold change vs veh, ESF1 / Fold change vs veh, TMEM50B / RFU, TAOK1 / Fold change vs veh, TAOK1 / RFU, ACBD3 / Fold change vs veh, ACBD3 / RFU, TMA16 / Fold change vs veh, TMA16 / RFU, RWDD3 / Fold change vs veh, RWDD3 / RFU, BCAT1 / Fold change vs veh, BCAT1 / RFU, EDEM3 / Fold change vs veh, EDEM3 / RFU, TMEM33 / Fold change vs veh, TMEM33 / RFU, WDR75 / Fold change vs veh, WDR75 / RFU, AHCTF1 / Fold change vs veh, AHCTF1 / RFU, TFRC / Fold change vs veh, TFRC / RFU, ZDHHC17 / Fold change vs veh, ZDHHC17 / RFU, NOM1 / Fold change vs veh, NOM1 / RFU, ARL8B / Fold change vs veh, ARL8B / RFU, ZBTB11 / Fold change vs veh, ZBTB11 / RFU, TAMM41 / Fold change vs veh, TAMM41 / RFU, KIAA1704 /// LOC100996395 / Fold change vs veh, KIAA1704 /// LOC100996395 / RFU, ING1 / Fold change vs veh, ING1 / RFU, TRMT61B / Fold change vs veh, TRMT61B / RFU, FUBP3 / Fold change vs veh, FUBP3 / RFU, TP53 / Fold change vs veh, TP53 / RFU, TNKS2 / Fold change vs veh, TNKS2 / RFU, ZFP14 / Fold change vs veh, ZFP14 / RFU, ACTR2 / Fold change vs veh, ACTR2 / RFU, PPP3R1 / Fold change vs veh, PPP3R1 / RFU, PIK3R1 / Fold change vs veh, PIK3R1 / RFU, HNRNPA1 / Fold change vs veh, HNRNPA1 / RFU, RNF170 / Fold change vs veh, RNF170 / RFU, ZNF28 / Fold change vs veh, ZNF28 / RFU, RNGTT / Fold change vs veh, RNGTT / RFU, OGT / Fold change vs veh, OGT / RFU, BRD1 / Fold change vs veh, BRD1 / RFU, MARS / Fold change vs veh, MARS / RFU, ZNF655 / Fold change vs veh, ZNF655 / RFU, FAHD1 / Fold change vs veh, FAHD1 / RFU, BDP1 / Fold change vs veh, BDP1 / RFU, LRRCC1 / Fold change vs veh, LRRCC1 / RFU, ARID1A / Fold change vs veh, ARID1A / RFU, ZNF146 / Fold change vs veh, ZNF146 / RFU, ZNF330 / Fold change vs veh, ZNF330 / RFU, GPN3 / Fold change vs veh, GPN3 / RFU, C9orf123 / Fold change vs veh, C9orf123 / RFU, N4BP2L2 / Fold change vs veh, N4BP2L2 / RFU, ARFIP1 / Fold change vs veh, ARFIP1 / RFU, FAM179B / Fold change vs veh, FAM179B / RFU, BCL10 / Fold change vs veh, BCL10 / RFU, UHRF1BP1L / Fold change vs veh, UHRF1BP1L / RFU, BET1 / Fold change vs veh, BET1 / RFU, CNOT2 / Fold change vs veh, CNOT2 / RFU, ZNF268 / Fold change vs veh, ZNF268 / Fold change vs veh, ZNF507 / RFU, DGCR2 / Fold change vs veh, DGCR2 / RFU, WDSUB1 / Fold change vs veh, WDSUB1 / Fold change vs veh, HSP90B1 /// MIR3652 / RFU, ADSS / Fold change vs veh, ADSS / RFU, GK / Fold change vs veh, GK / RFU, ZNF148 / Fold change vs veh, ZNF148 / RFU, TAF9 / Fold change vs veh, TAF9 / RFU, SLC1A5 / Fold change vs veh, SLC1A5 / RFU, SLMO2 / Fold change vs veh, SLMO2 / RFU, ABCC4 / Fold change vs veh, ABCC4 / RFU, LOC101060439 /// RAP1B / Fold change vs veh, LOC101060439 /// RAP1B / RFU, RFX7 / Fold change vs veh, RFX7 / RFU, GTPBP10 / Fold change vs veh, GTPBP10 / RFU, CNEP1R1 / Fold change vs veh, CNEP1R1 / RFU, BIVM-ERCC5 /// ERCC5 / Fold change vs veh, BIVM-ERCC5 /// ERCC5 / RFU, ILF3 / Fold change vs veh, ILF3 / RFU 11762660_at / Fold change /veh 11762660_at / RFU VCAN (11757783_s_at) / Fold change /veh VCAN (11757783_s_at) / RFU DDX43 (11728927_at) / Fold change /veh DDX43 (11728927_at) / RFU KRT8 (11758188_x_at) / Fold change /veh KRT8 (11758188_x_at) / RFU NKD1 (11759106_at) / Fold change /veh NKD1 (11759106_at) / RFU SRD5A1 (11742802_a_at) / Fold change /veh SRD5A1 (11742802_a_at) / RFU TPSAB1 /// TPSB2 (11721975_s_at) / Fold change /veh TPSAB1 /// TPSB2 (11721975_s_at) / RFU GSTM3 (11746129_a_at) / Fold change /veh GSTM3 (11746129_a_at) / RFU IL23R (11737362_x_at) / Fold change /veh IL23R (11737362_x_at) / RFU TMEM51 (11727254_a_at) / Fold change /veh TMEM51 (11727254_a_at) / RFU PIWIL2 (11732686_x_at) / Fold change /veh PIWIL2 (11732686_x_at) / RFU ORM1 (11744905_x_at) / Fold change /veh ORM1 (11744905_x_at) / RFU CCDC152 (11743942_at) / Fold change /veh CCDC152 (11743942_at) / RFU ECM1 (11717891_a_at) / Fold change /veh ECM1 (11717891_a_at) / RFU IL23R (11748794_a_at) / Fold change /veh IL23R (11748794_a_at) / RFU TNFAIP8L3 (11732012_x_at) / Fold change /veh TNFAIP8L3 (11732012_x_at) / RFU MBOAT4 (11741988_at) / Fold change /veh MBOAT4 (11741988_at) / RFU 11764193_at / Fold change /veh 11764193_at / RFU TMEM53 (11763286_at) / Fold change /veh TMEM53 (11763286_at) / RFU MAGEB2 (11727129_at) / Fold change /veh MAGEB2 (11727129_at) / RFU TMEM200A (11744735_a_at) / Fold change /veh TMEM200A (11744735_a_at) / RFU CCDC152 (11751479_a_at) / Fold change /veh CCDC152 (11751479_a_at) / RFU FAM211A (11726209_a_at) / Fold change /veh FAM211A (11726209_a_at) / RFU RGS16 (11746705_a_at) / Fold change /veh RGS16 (11746705_a_at) / RFU VCAN (11755009_s_at) / Fold change /veh VCAN (11755009_s_at) / RFU RHOB (11743442_s_at) / Fold change /veh RHOB (11743442_s_at) / RFU RGS16 (11720943_a_at) / Fold change /veh RGS16 (11720943_a_at) / RFU RGS16 (11720944_at) / Fold change /veh RGS16 (11720944_at) / RFU, VPS4B / Fold change vs veh, VPS4B / RFU, CREB1 / Fold change vs veh, CREB1 / RFU, DNAJC13 / Fold change vs veh, DNAJC13 / RFU, GNAQ / Fold change vs veh, GNAQ / RFU, CDK5R1 / Fold change vs veh, CDK5R1 / RFU, ZRANB3 / Fold change vs veh, ZRANB3 / RFU, CUL4A / Fold change vs veh, CUL4A / RFU, CCNY / Fold change vs veh, CCNY / RFU, UFL1 / Fold change vs veh, UFL1 / RFU, COG3 / Fold change vs veh, COG3 / RFU, DIAPH2 / Fold change vs veh, DIAPH2 / RFU, SKA2 / Fold change vs veh, SKA2 / RFU, AFF3 / Fold change vs veh, AFF3 / RFU, LMF1 / Fold change vs veh, LMF1 / RFU, IPO11 / Fold change vs veh, IPO11 / RFU, DFFB / Fold change vs veh, DFFB / RFU, FOXP1 / Fold change vs veh, FOXP1 / RFU, CARD8 / Fold change vs veh, CARD8 / RFU, STRN3 / Fold change vs veh, STRN3 / RFU, ADK / Fold change vs veh, ADK / RFU, RASSF2 / Fold change vs veh, RASSF2 / RFU, WIPF1 / Fold change vs veh, WIPF1 / RFU, LARP1B / Fold change vs veh, LARP1B / RFU, RASA1 / Fold change vs veh, RASA1 / RFU, RB1 / Fold change vs veh, RB1 / RFU, PPFIA1 / Fold change vs veh, PPFIA1 / RFU, MAT2A / Fold change vs veh, MAT2A / RFU, CCT5 / Fold change vs veh, CCT5 / RFU, WDR92 / Fold change vs veh, WDR92 / RFU, CUX1 / Fold change vs veh, CUX1 / RFU, TTC7A / Fold change vs veh, TTC7A / RFU, TMEM135 / Fold change vs veh, TMEM135 / RFU, DEPTOR / Fold change vs veh, DEPTOR / RFU, CPM / Fold change vs veh, CPM / RFU, DNAJB6 / Fold change vs veh, DNAJB6 / RFU, CACNA2D3 / Fold change vs veh, CACNA2D3 / RFU, DTX4 / Fold change vs veh, DTX4 / RFU, TFCP2 / Fold change vs veh, TFCP2 / RFU, GMCL1 /// GMCL1P1 / Fold change vs veh, GMCL1 /// GMCL1P1 / RFU, AEBP2 / Fold change vs veh, AEBP2 / RFU, SNHG1 /// SNORD22 /// SNORD25 /// SNORD26 /// SNORD27 /// SNORD28 /// SNORD29 /// SNORD31 / Fold change vs veh, SNHG1 /// SNORD22 /// SNORD25 /// SNORD26 /// SNORD27 /// SNORD28 /// SNORD29 /// SNORD31 / Fold change (Aza/veh), C12orf56 (ProbeSet 11735607_a_at) / Fold change (ACY-1035/veh), C12orf56 (ProbeSet 11735607_a_at) / Fold change (Aza/veh), FGFR1OP (ProbeSet 11751329_s_at) / Fold change (ACY-1035/veh), FGFR1OP (ProbeSet 11751329_s_at) / Fold change (Aza/veh), VPS36 (ProbeSet 11739960_a_at) / Fold change (ACY-1035/veh), VPS36 (ProbeSet 11739960_a_at) / RFU SYPL1 (11715823_x_at) / Fold change /veh SYPL1 (11715823_x_at) / RFU IGFBP7 (11715501_s_at) / Fold change /veh IGFBP7 (11715501_s_at) / RFU REEP3 (11722064_at) / Fold change /veh REEP3 (11722064_at) / RFU IGLL1 (11728026_x_at) / Fold change /veh IGLL1 (11728026_x_at): dose or concentration left out as unconfirmed. The following applies: MV-4-11 cells, 48 hours. In kind it is cell-based, human.

Consider `Nc1ncn([C@@H]2O[C@H](CO)[C@@H](O)[C@H]2O)c(=O)n1` [azacitidine], for which the “RFU GSTM3 (11746129_a_at)” value was found to be 15.07 RFU.

These data come from PMC5218480 (PLoS ONE, 2017).
